Consider 3 compounds from patent US20120225904A1, “New 7-Phenyl-[1,2,4]triazolo[4,3-a]Pyridin-3(2H)-One Derivatives” (priority 2009, published 2012).

A word on the IC50: it is the point on the concentration scale where inhibition reaches its midpoint.

This assay concerns the target T1, human p38alfa (SAPKa) enzyme (Homo sapiens, UniProt Q16539).
T1 construct: purchased University of Dundee
In words: p38alpha enzymatic inhibition assay (FRET, ATF2 substrate). It is filed as biochemical. Particulars: 1 h pre-incubation; ATF2 0.62 μM, ATP 60 μM; 1 h at 25° C.; read-out: p38α IC50. Here is the method:
Enzymatic activity assay was performed in 96-well microtiter plates (Corning, catalog number # 3686) using a total volume of 50 μl of an assay buffer composed of 50 mM HEPES (4-(2-hydroxyethyl)-1-piperazineethanesulfonic acid) pH 7.5, 10 mM MgCl2, 1.75 mM Na3VO4.
Various concentrations of the test compound or vehicle controls were pre-incubated for one hour with 0.055 μg/ml of the human p38alfa (SAPKa) enzyme (obtained from University of Dundee). The reaction started by addition of biotinylated ATF2 substrate and ATP in concentrations around their Km values (final concentration 0.62 μM and 60 μM respectively) and took place for one hour at 25° C. Addition of the detection reagents, streptavidin—XL665 and anti-phosphoresidue antibody coupled to Europium cryptate, caused the juxtaposition of the cryptate and the XL665 fluorophore, resulting in fluorescence energy transfer (FRET).The FRET intensity depends on the amount of bounded cryptate antibody, which is proportional to the extent of substrate phosphorylation. FRET intensity was measured using Victor 2V spectrofluorometer.
Data were analyzed by non-linear regression (Hill equation) to generate a dose-response curve. The calculated IC50 value is the concentration of the test compound that caused a 50% decrease in the maximal FRET intensity.

T1 sequence (Q16539 whole entry): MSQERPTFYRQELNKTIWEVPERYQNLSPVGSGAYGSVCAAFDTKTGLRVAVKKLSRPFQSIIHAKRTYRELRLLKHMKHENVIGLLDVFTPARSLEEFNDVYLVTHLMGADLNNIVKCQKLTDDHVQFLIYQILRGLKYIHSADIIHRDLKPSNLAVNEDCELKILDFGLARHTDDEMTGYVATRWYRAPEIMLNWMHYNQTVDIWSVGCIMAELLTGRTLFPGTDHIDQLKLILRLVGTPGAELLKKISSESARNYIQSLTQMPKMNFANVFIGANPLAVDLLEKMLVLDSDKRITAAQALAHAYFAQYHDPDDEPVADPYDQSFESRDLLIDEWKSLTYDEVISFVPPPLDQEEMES

`Cc1c(F)cc(C(=O)NC2CC2)cc1-c1ccn2c(=O)n(CC(C)(C)C)nc2c1` [Example 2, N-cyclopropyl-3-[2-(2,2-dimethylpropyl)-3-oxo-2,3-dihydro[1,2,4]triazolo[4,3-a]pyridin-7-yl]-5-fluoro-4-methylbenzamide]: the IC50 turned out to be 2 nM. For the compound `Cc1c(F)cc(C(=O)NC2CC2)cc1-c1ccn2c(=O)n(-c3ccccc3Cl)nc2c1` [Example 7, 3-[2-(2-Chlorophenyl)-3-oxo-2,3-dihydro[1,2,4]triazolo[4,3-a]pyridin-7-yl]-N-cyclopropyl-5-fluoro-4-methylbenzamide], the IC50 was 1.08 nM. Turning to `Cc1ccc2c(NC3CC3)noc2c1-c1ccn2c(=O)n(CC(C)(C)C)nc2c1` [Example 11], the IC50 came to 12 nM.
